Where “and” joins values, the source holds several entries; their conditions need not be identical. Identical values can stand only once. Like-named read-outs stand apart in the source and are kept apart here.
What was measured:
[1] = test system: LPS-induced acute lung injury; conditions: pretreated mice vs no-treatment control group; cited from earlier work
[2] = Pharmacokinetics in plasma and epithelial lining fluid of mice after a single SC dose; assay type: in vivo, BALB/c mice; conditions: for AUC(0-t): read-out: AUC0-24h, mean±SEM; for Cmax: read-out: Cmax, mean±SEM
Description: Pharmacokinetic parameters were evaluated as previously described. […] Plasma samples were analyzed by liquid chromatography with […] mass spectrometry (Q Exactive Plus; Thermo Fisher Scientific).
Area under the curve (AUC) values were determined using the linear trapezoidal method.

J774.2 mouse macrophages = assay: Cytotoxicity in J774.2 mouse macrophages (adenylate kinase release, ToxiLight); assay type: cell-based; conditions: for cell viability: J774.2 cells; for fold-change of adenylate kinase release at test concentration vs vehicle control, Mean ± SEM: J774.2 mouse macrophages, n=2
Description: (§1) The effect of t est compounds on cell viabilit y of J 774.2 macrophages and human PBMCs […]
(§2) was determined b y comp aring th e aden yl ate kinas e signal obtain ed in the p resence of diff er ent concentrations of compounds with those obtained in DMSO (vehicle) control. Signals were […]
(§3) divided,and the results were ex pressed as fold-change versus v ehicle con trol .

human PBMCs = assay: Cytotoxicity in human PBMCs (adenylate kinase release, ToxiLight); assay type: cell-based; conditions: for fold-change of adenylate kinase release at test concentration vs vehicle control, Mean ± SEM: human PBMCs, n=2
Description: as §1, §2, §3

[3] = test system: IL-8–activated human neutrophils; assay: Chemotaxis of IL-8–activated human neutrophils (transwell, CellTiter Glo); assay type: cell-based; conditions: for Neutrophilic chemotaxis, RLU, Mean / Neutrophilic chemotaxis: % reduction / Neutrophilic chemotaxis, RLU, single replicates: IL-8; for Neutrophilic chemotaxis, RLU, single replicates: listed as Lef
From the text: Buffy coat (blood sample fraction comprising white blood cells and platelets) from whole blood was obtained from a healthy adult volunteer at the Croatian Institute of Transfusion Medicine (CITM; Zagreb, Croatia). The CITM ethics committee approved the blood collection process, and the volunteer provided written informed consent prior to blood collection. Neutrophils were isolated from the buffy coat, an aliquot of which was used for cell counting via hematologic analyzer (X500i; Sysmex). […] The diluted buffy coat was drawn into sterile 50-mL syringes and incubated for 30 minutes at RT. Following incubation, the upper layer of leukocyte-rich plasma (35 mL) was decanted into a new sterile 50-mL conical centrifuge tube, carefully layered onto 15 mL of Lymphoprep (Axis-Shield Diagnostics, Ltd., Dundee, UK) and centrifuged at 400×g (brake turned off) for 35 minutes at RT. The supernatant and mononuclear ring were discarded, and the pellet was resuspended in 10 mL of cold sterile MilliQ water. […] Resuspended neutrophils were counted via Sysmex X500i hematologic analyzer.
All test compounds were reconstituted in DMSO (Sigma-Aldrich Chemie GmbH) to 100-mM stock concentrations, taking into consideration and correcting for salt and purity. A 30-mM stock solution of reference compound Sch527123 (MedChemExpress, Monmouth Junction, NJ, USA) was diluted to 10 mM with DMSO.
DMSO was used as vehicle. […] The reference compound was tested at concentrations of 0.003, 0.01, 0.03, 0.1, 0.3, 1, 3, and 10 μM. All compounds were tested in triplicate, and the final DMSO concentration was 0.1% per well.
Test and reference compound working solutions were then added (20 μL/well) for a 10-fold dilution to final testing concentrations. Compounds and cells were mixed by gentle pipetting, and the plate was pre-incubated for 30 minutes at RT with gentle mixing by pipetting.
Negative control wells received 180 μL of migration medium alone. To all wells, 20 μL of compound working solutions or DMSO vehicle was added. Once pre-incubation of cells with compounds was complete, the transwell inserts were carefully placed on the receiver plate, with caution to avoid air bubble formation, which could prevent cell migration. To the upper wells, 75 μL of cell suspension (375,000 cells/well) was added, taking care not to tear the membrane with pipette tips.
After incubation, the number of cells that migrated to the lower wells was quantified by removing the Transwell insert and adding 200 μL of CellTiter Glo reagent (CellTiter-Glo Luminescent Cell Viability Assay, Promega, Madison, WI, USA) to each lower well to quantify the amount of adenosine triphosphate (ATP) present, signaling the presence of metabolically active cells. The plate was incubated for 10 minutes in the dark at RT, followed by transferring 150 μL of solution into wells of a white 96-well plate (Lumitrac 200; Greiner Bio-One International GmbH, Kremsmunster, Austria).
For the chemotaxis and cytotoxicity evaluations, average relative light unit values were calculated from all untreated vehicle samples and, for each sample, percentage of vehicle value was calculated. The tested compound was considered cytotoxic if reduction from untreated vehicle was ≥20%.

[4] = female, BALB/c, mouse, epithelial lining fluid (ELF), ELF, mice, single 35 mg/kg SC
[5] = female, BALB/c, mouse, plasma, mice, single 35 mg/kg SC

C[C@@H]1C[C@H]2[C@@H]3CCC4=CC(=O)C=C[C@]4(C)[C@@]3(F)[C@@H](O)C[C@]2(C)[C@@]1(O)C(=O)CO [Dexamethasone]
LPS-induced pulmonary edema, accumulation of inflammatory cells in BALF, and increased inflammatory cytokines (eg, TNF-α and IL-6) [1]: significantly attenuated

C=C[C@]1(C)C[C@@H](OC(=O)CS[C@@H]2CC[C@@H](N)C[C@H]2O)[C@]2(C)[C@H](C)CC[C@]3(CCC(=O)[C@H]32)[C@@H](C)[C@@H]1O [Lefamulin]
plasma AUC0-24h in mice compared with exposures in healthy volunteers after a single dose of 150 mg IV ([2]; 35 mg/kg SC in mice, human data ref 29): comparable | AUC0-24h/Dose, mean ([2]; ELF, mice, single 35 mg/kg SC): 0.36 (μg∙h/mL)/(mg/kg) | Kp ([2]; female, BALB/c, mouse, epithelial lining fluid (ELF) / plasma, mice, single 35 mg/kg SC, read-out: AUC ratio for ELF to plasma): ~2 | Tmax [2, 4]: 30 min | AUC(0-t) [2, 4]: 12600 ± 1170 ng·h/mL | Cmax [2, 4]: 2160 ± 500 ng/mL | Tmax [2, 5]: 30 min | AUC(0-t) [2, 5]: 6250 ± 930 ng·h/mL | Cmax [2, 5]: 1330 ± 180 ng/mL | distribution from plasma to ELF (penetration into the lung compartment) ([2]; mice, single SC dose 35 mg/kg): rapid penetration | AUC0-24h/Dose, mean ([2]; plasma, mice, single 35 mg/kg SC): 0.18 (μg∙h/mL)/(mg/kg) | cell viability (J774.2 mouse macrophages; 30 μM): reduced | cell viability (J774.2 mouse macrophages; 100 μM): reduced | fold-change of adenylate kinase release at test concentration vs vehicle control, Mean ± SEM (J774.2 mouse macrophages; 0.03 µM): 1.33 ± 0.11 fold-change | fold-change of adenylate kinase release at test concentration vs vehicle control, Mean ± SEM (J774.2 mouse macrophages; 0.1 µM): 1.27 ± 0.23 fold-change | fold-change of adenylate kinase release at test concentration vs vehicle control, Mean ± SEM (J774.2 mouse macrophages; 0.3 µM): 1.10 ± 0.16 fold-change | fold-change of adenylate kinase release at test concentration vs vehicle control, Mean ± SEM (J774.2 mouse macrophages; 1 µM): 0.89 ± 0.08 fold-change | fold-change of adenylate kinase release at test concentration vs vehicle control, Mean ± SEM (J774.2 mouse macrophages; 3 µM): 1.12 ± 0.18 fold-change | fold-change of adenylate kinase release at test concentration vs vehicle control, Mean ± SEM (J774.2 mouse macrophages; 10 µM): 1.26 ± 0.27 fold-change | fold-change of adenylate kinase release at test concentration vs vehicle control, Mean ± SEM (J774.2 mouse macrophages; 30 µM): 2.00 ± 0.13 fold-change | fold-change of adenylate kinase release at test concentration vs vehicle control, Mean ± SEM (J774.2 mouse macrophages; 100 µM): 6.18 ± 0.05 fold-change | cell viability (human PBMCs; PBMCs, 100 μM): reduced | fold-change of adenylate kinase release at test concentration vs vehicle control, Mean ± SEM (human PBMCs; 0.03 µM): 1.07 ± 0.03 fold-change | fold-change of adenylate kinase release at test concentration vs vehicle control, Mean ± SEM (human PBMCs; 0.1 µM): 1.04 ± 0.01 fold-change | fold-change of adenylate kinase release at test concentration vs vehicle control, Mean ± SEM (human PBMCs; 0.3 µM): 1.03 ± 0.02 fold-change | fold-change of adenylate kinase release at test concentration vs vehicle control, Mean ± SEM (human PBMCs; 1 µM): 1.00 ± 0.01 fold-change | fold-change of adenylate kinase release at test concentration vs vehicle control, Mean ± SEM (human PBMCs; 3 µM): 0.95 ± 0.01 fold-change | fold-change of adenylate kinase release at test concentration vs vehicle control, Mean ± SEM (human PBMCs; 10 µM): 0.93 ± 0.01 fold-change | fold-change of adenylate kinase release at test concentration vs vehicle control, Mean ± SEM (human PBMCs; 30 µM): 0.92 ± 0.03 fold-change | fold-change of adenylate kinase release at test concentration vs vehicle control, Mean ± SEM (human PBMCs; 100 µM): 1.20 ± 0.03 fold-change | IL-8–induced chemotaxis of human neutrophils ([3]; 0.03 to 30 μM): no effect | Neutrophilic chemotaxis, RLU, Mean ([3]; 0.03 µM): 133060 RLU | Neutrophilic chemotaxis: % reduction ([3]; 0.03 µM): -0.0452% | Neutrophilic chemotaxis, RLU, single replicates ([3]; 0.03 µM): 133000 RLU and 133120 RLU | Neutrophilic chemotaxis, RLU, Mean ([3]; 0.1 µM): 130347 RLU | Neutrophilic chemotaxis: % reduction ([3]; 0.1 µM): 2.26% | Neutrophilic chemotaxis, RLU, single replicates ([3]; 0.1 µM): 131200 RLU and 127720 RLU and 132120 RLU | Neutrophilic chemotaxis, RLU, Mean ([3]; 0.3 µM): 132827 RLU | Neutrophilic chemotaxis: % reduction ([3]; 0.3 µM): 0.153% | Neutrophilic chemotaxis, RLU, single replicates ([3]; 0.3 µM): 128480 RLU and 128040 RLU and 141960 RLU | Neutrophilic chemotaxis, RLU, Mean ([3]; 1 µM): 128693 RLU | Neutrophilic chemotaxis: % reduction ([3]; 1 µM): 3.66% | Neutrophilic chemotaxis, RLU, single replicates ([3]; 1 µM): 129760 RLU and 127360 RLU and 128960 RLU | Neutrophilic chemotaxis, RLU, Mean ([3]; 3 µM): 129147 RLU | Neutrophilic chemotaxis: % reduction ([3]; 3 µM): 3.27% | Neutrophilic chemotaxis, RLU, single replicates ([3]; 3 µM): 127920 RLU and 125520 RLU and 134000 RLU | Neutrophilic chemotaxis, RLU, Mean ([3]; 10 µM): 129213 RLU | Neutrophilic chemotaxis: % reduction ([3]; 10 µM): 3.22% | Neutrophilic chemotaxis, RLU, single replicates ([3]; 10 µM): 122760 RLU and 130480 RLU and 134400 RLU | Neutrophilic chemotaxis, RLU, Mean ([3]; 30 µM): 118747 RLU | Neutrophilic chemotaxis: % reduction ([3]; 30 µM): 12% | Neutrophilic chemotaxis, RLU, single replicates ([3]; 30 µM): 115000 RLU and 125400 RLU and 115840 RLU | Neutrophilic chemotaxis, RLU, Mean ([3]; 100 µM): 73307 RLU | Neutrophilic chemotaxis: % reduction ([3]; 100 µM): 51% | Neutrophilic chemotaxis, RLU, single replicates ([3]; 100 µM): 81720 RLU and 76640 RLU and 61560 RLU
